In PMC5201331, “Subchronic Toxicities of HZ1006, a Hydroxamate-Based Histone Deacetylase Inhibitor, in Beagle Dogs and Sprague-Dawley Rats” (International Journal of Environmental Research and Public …, 2016):

Test system: Beagle dogs
Assay: Subchronic toxicity test in Beagle dogs: hematology
Type: in vivo
Procedure: HZ1006 was administered orally to dogs (four/sex/group) at doses of 80, 40, 20, 5 and 0 (control) mg/kg/day, and the dosage volume was 2 mL/kg. The dogs received test doses with the exact amounts on a weekly basis based on current body weights. […] The other dogs in the above groups were dissected on the planned days. For the other groups, half of the dogs were anatomized on d28 and the remaining half on d42.
The following indexes were examined for the dogs used in the study, twice during the pre-dosage period and on d14, d28 and d42. The following parameters were evaluated on d28 and d42 for the rats in the study:
Blood samples of the animals were collected in tubes containing ethylenediamine tetraacetic acid (EDTA) and tested using an ADVIA2120 Hematology Autoanalyzer (Bayer, Leverkusen, Germany). The following indexes were examined: hemoglobin concentration (Hb), red blood cell count (RBC),mean corpuscular volume (MCV), hematocrit (HCT), mean corpuscular hemoglobin concentration (MCHC), mean corpuscular hemoglobin (MCH), white blood cell count (WBC), platelet count (Plt), WBC differential counts [neutrophilcyte (Neu), eosinophilic granulocyte (Eos), basophilic leukocyte (Bas), lymphocyte (Lym), and monocyte (Mon)] and reticulocytes (Ret). The serum coagulation times of the blood samples (1.8-mL samples were mixed with 0.2 mL sodium citrate), including prothrombin time (PT), fibrinogen (FIB), activated partial thromboplastin time (APTT), and thrombin time (TT), were tested using an MC10 plus Blood Coagulation Analyzer from Shanghai San Jose Medical Products Co., Ltd. (Shanghai, China).

[1] = dog ♀6 (80 mg/kg/day oral), d0 (pre-dose)
[2] = dog ♀6 (80 mg/kg/day oral), d14 line (moribund, euthanized d8)
[3] = dog ♀28 (40 mg/kg/day oral), d0 (pre-dose)
[4] = dog ♀28 (40 mg/kg/day oral), d14 (died d16)
[5] = dogs, 5 mg/kg/day oral, d0 (pre-dose)
[6] = dogs, 5 mg/kg/day oral, d42 (recovery)
[7] = dogs, 20 mg/kg/day oral, d0 (pre-dose)
[8] = dogs, 20 mg/kg/day oral, d42 (recovery)
[9] = dogs, 40 mg/kg/day oral, d0 (pre-dose)
[10] = dogs, 40 mg/kg/day oral, d42 (recovery)
[11] = dogs, 80 mg/kg/day oral, d0 (pre-dose)
[12] = dogs, 80 mg/kg/day oral, d42 (recovery)

CCCCCCCNc1cc(/C=C/C(=O)NO)ccc1OCCN(CC)CC [HZ1006]
APTT: Activated partial thromboplastin time [1]: 13.9 s | RET: Reticulocytes [1]: 1.37% | APTT: Activated partial thromboplastin time [2]: 48.7 s | RET: Reticulocytes [2]: 0.14% | APTT: Activated partial thromboplastin time [3]: 12.4 s | RET: Reticulocytes [3]: 0.75% | APTT: Activated partial thromboplastin time [4]: 18.5 s | RET: Reticulocytes [4]: 0.04% | APTT: Activated partial thromboplastin time [5]: 13.6 ± 0.6 s | FIB: Fibrinogen [5]: 2.25 ± 0.37 g/L | HCT: Hematocrit [5]: 43.0 ± 2.6% | HGB: Hemoglobin concentration [5]: 139 ± 8 g/L | MON: Monocyte [5]: 4.4 ± 1.6% | RBC: Red blood cell count [5]: 6.31 ± 0.45 ×10^12/L | RET: Reticulocytes [5]: 0.77 ± 0.38% | APTT: Activated partial thromboplastin time (dogs, 5 mg/kg/day oral, d14): 13.2 ± 0.6 s | FIB: Fibrinogen (dogs, 5 mg/kg/day oral, d14): 2.53 ± 0.46 g/L | HCT: Hematocrit (dogs, 5 mg/kg/day oral, d14): 41.8 ± 2.7% | HGB: Hemoglobin concentration (dogs, 5 mg/kg/day oral, d14): 138 ± 9 g/L | MON: Monocyte (dogs, 5 mg/kg/day oral, d14): 4.2 ± 1.0% | RBC: Red blood cell count (dogs, 5 mg/kg/day oral, d14): 6.23 ± 0.46 ×10^12/L | RET: Reticulocytes (dogs, 5 mg/kg/day oral, d14): 0.62 ± 0.29% | APTT: Activated partial thromboplastin time (dogs, 5 mg/kg/day oral, d28): 13.1 ± 0.5 s | FIB: Fibrinogen (dogs, 5 mg/kg/day oral, d28): 2.56 ± 0.40 g/L | HCT: Hematocrit (dogs, 5 mg/kg/day oral, d28): 41.6 ± 2.4% | HGB: Hemoglobin concentration (dogs, 5 mg/kg/day oral, d28): 135 ± 8 g/L | MON: Monocyte (dogs, 5 mg/kg/day oral, d28): 4.4 ± 1.4% | RBC: Red blood cell count (dogs, 5 mg/kg/day oral, d28): 6.22 ± 0.43 ×10^12/L | RET: Reticulocytes (dogs, 5 mg/kg/day oral, d28): 0.49 ± 0.23% | APTT: Activated partial thromboplastin time [6]: 13.4 ± 0.4 s | FIB: Fibrinogen [6]: 2.89 ± 0.60 g/L | HCT: Hematocrit [6]: 41.0 ± 1.8% | HGB: Hemoglobin concentration [6]: 134 ± 7 g/L | MON: Monocyte [6]: 4.0 ± 1.2% | RBC: Red blood cell count [6]: 6.21 ± 0.36 ×10^12/L | RET: Reticulocytes [6]: 0.61 ± 0.22% | APTT: Activated partial thromboplastin time [7]: 12.4 ± 0.3 s | FIB: Fibrinogen [7]: 4.07 ± 0.94 g/L | HCT: Hematocrit [7]: 42.2 ± 3.9% | HGB: Hemoglobin concentration [7]: 142 ± 13 g/L | MON: Monocyte [7]: 4.7 ± 1.3% | RBC: Red blood cell count [7]: 6.20 ± 0.58 ×10^12/L | RET: Reticulocytes [7]: 0.96 ± 0.24% | APTT: Activated partial thromboplastin time (dogs, 20 mg/kg/day oral, d14): 12.5 ± 0.5 s | FIB: Fibrinogen (dogs, 20 mg/kg/day oral, d14): 4.30 ± 1.17 g/L | HCT: Hematocrit (dogs, 20 mg/kg/day oral, d14): 36.9 ± 2.2 % | HGB: Hemoglobin concentration (dogs, 20 mg/kg/day oral, d14): 118 ± 7 g/L | MON: Monocyte (dogs, 20 mg/kg/day oral, d14): 8.0 ± 2.3 % | RBC: Red blood cell count (dogs, 20 mg/kg/day oral, d14): 5.57 ± 0.30 ×10^12/L | RET: Reticulocytes (dogs, 20 mg/kg/day oral, d14): 0.53 ± 0.23 % | APTT: Activated partial thromboplastin time (dogs, 20 mg/kg/day oral, d28): 12.0 ± 0.7 s | FIB: Fibrinogen (dogs, 20 mg/kg/day oral, d28): 4.48 ± 1.68 g/L | HCT: Hematocrit (dogs, 20 mg/kg/day oral, d28): 36.6 ± 1.0 % | HGB: Hemoglobin concentration (dogs, 20 mg/kg/day oral, d28): 118 ± 3 g/L | MON: Monocyte (dogs, 20 mg/kg/day oral, d28): 9.0 ± 1.4 % | RBC: Red blood cell count (dogs, 20 mg/kg/day oral, d28): 5.57 ± 0.16 ×10^12/L | RET: Reticulocytes (dogs, 20 mg/kg/day oral, d28): 0.54 ± 0.19 % | APTT: Activated partial thromboplastin time [8]: 12.8 ± 0.3 s | FIB: Fibrinogen [8]: 4.26 ± 0.49 g/L | HCT: Hematocrit [8]: 39.4 ± 1.7% | HGB: Hemoglobin concentration [8]: 128 ± 8 g/L | MON: Monocyte [8]: 5.8 ± 1.0% | RBC: Red blood cell count [8]: 5.96 ± 0.13 ×10^12/L | RET: Reticulocytes [8]: 0.83 ± 0.23% | APTT: Activated partial thromboplastin time [9]: 12.8 ± 0.5 s | FIB: Fibrinogen [9]: 4.84 ± 0.89 g/L | HCT: Hematocrit [9]: 41.7 ± 2.0% | HGB: Hemoglobin concentration [9]: 139 ± 6 g/L | MON: Monocyte [9]: 6.0 ± 1.8% | RBC: Red blood cell count [9]: 6.01 ± 0.31 ×10^12/L | RET: Reticulocytes [9]: 0.86 ± 0.17% | APTT: Activated partial thromboplastin time (dogs, 40 mg/kg/day oral, d14): 16.8 ± 0.7 s | FIB: Fibrinogen (dogs, 40 mg/kg/day oral, d14): 7.19 ± 1.58 g/L | HCT: Hematocrit (dogs, 40 mg/kg/day oral, d14): 35.5 ± 2.6 % | HGB: Hemoglobin concentration (dogs, 40 mg/kg/day oral, d14): 114 ± 8 g/L | MON: Monocyte (dogs, 40 mg/kg/day oral, d14): 9.2 ± 5.3% | RBC: Red blood cell count (dogs, 40 mg/kg/day oral, d14): 5.6 ± 0.36 ×10^12/L | RET: Reticulocytes (dogs, 40 mg/kg/day oral, d14): 0.13 ± 0.11 % | APTT: Activated partial thromboplastin time (dogs, 40 mg/kg/day oral, d28): 12.8 ± 0.8 s | FIB: Fibrinogen (dogs, 40 mg/kg/day oral, d28): 4.93 ± 1.22 g/L | HCT: Hematocrit (dogs, 40 mg/kg/day oral, d28): 32.8 ± 2.8 % | HGB: Hemoglobin concentration (dogs, 40 mg/kg/day oral, d28): 105 ± 9 g/L | MON: Monocyte (dogs, 40 mg/kg/day oral, d28): 11.6 ± 4.5 % | RBC: Red blood cell count (dogs, 40 mg/kg/day oral, d28): 5.00 ± 0.47 ×10^12/L | RET: Reticulocytes (dogs, 40 mg/kg/day oral, d28): 0.51 ± 0.22 % | APTT: Activated partial thromboplastin time [10]: 12.9 ± 0.8 s | FIB: Fibrinogen [10]: 4.22 ± 1.25 g/L | HCT: Hematocrit [10]: 39.7 ± 0.1% | HGB: Hemoglobin concentration [10]: 124 ± 1 g/L | MON: Monocyte [10]: 6.4 ± 3.5% | RBC: Red blood cell count [10]: 5.96 ± 0.06 ×10^12/L | RET: Reticulocytes [10]: 0.89 ± 0.65% | APTT: Activated partial thromboplastin time [11]: 13.4 ± 0.6 s | FIB: Fibrinogen [11]: 3.80 ± 0.84 g/L | HCT: Hematocrit [11]: 40.3 ± 3.0% | HGB: Hemoglobin concentration [11]: 134 ± 10 g/L | MON: Monocyte [11]: 5.0 ± 0.8% | RBC: Red blood cell count [11]: 5.92 ± 0.42 ×10^12/L | RET: Reticulocytes [11]: 0.92 ± 0.27% | APTT: Activated partial thromboplastin time (dogs, 80 mg/kg/day oral, d14): 16.2 ± 3.0 s | FIB: Fibrinogen (dogs, 80 mg/kg/day oral, d14): 7.06 ± 2.14 g/L | HCT: Hematocrit (dogs, 80 mg/kg/day oral, d14): 33.4 ± 2.6 % | HGB: Hemoglobin concentration (dogs, 80 mg/kg/day oral, d14): 107 ± 8 g/L | MON: Monocyte (dogs, 80 mg/kg/day oral, d14): 19.7 ± 19.7 % | RBC: Red blood cell count (dogs, 80 mg/kg/day oral, d14): 5.09 ± 0.42 ^##^,* ×10^12/L | RET: Reticulocytes (dogs, 80 mg/kg/day oral, d14): 0.08 ± 0.12 % | APTT: Activated partial thromboplastin time (dogs, 80 mg/kg/day oral, d28): 12.5 ± 0.5 s | FIB: Fibrinogen (dogs, 80 mg/kg/day oral, d28): 6.69 ± 0.62 g/L | HCT: Hematocrit (dogs, 80 mg/kg/day oral, d28): 26.9 ± 1.7 % | HGB: Hemoglobin concentration (dogs, 80 mg/kg/day oral, d28): 86 ± 5 g/L | MON: Monocyte (dogs, 80 mg/kg/day oral, d28): 12.5 ± 2.9 % | RBC: Red blood cell count (dogs, 80 mg/kg/day oral, d28): 4.17 ± 0.33 ×10^12/L | RET: Reticulocytes (dogs, 80 mg/kg/day oral, d28): 0.21 ± 0.16 % | APTT: Activated partial thromboplastin time [12]: 12.7 ± 0.9 s | FIB: Fibrinogen [12]: 3.72 ± 2.00 g/L | HCT: Hematocrit [12]: 37.5 ± 3.1% | HGB: Hemoglobin concentration [12]: 126 ± 4 g/L | MON: Monocyte [12]: 5.0 ± 1.9% | RBC: Red blood cell count [12]: 5.71 ± 0.50 ×10^12/L | RET: Reticulocytes [12]: 0.88 ± 0.27%
